Reference: patent US10806740B2, “Natural combination hormone replacement formulations and therapies” (TherapeuticsMD, Inc., priority 2012, dated 2020)
One block for each compound: values may come before it.

How the values were obtained:
Assay type in all cases: physicochemical
[1] = Estradiol solutions after addition of 7% water
Source text: In addition to determining physical stability of the estradiol solutions over time, it is necessary to determine if the fill material will be stable during the encapsulation process. One way to test these preparations is with the addition of water to the fill mass. […].
All CAPMUL® PG8 containing formulations turned hazy on the addition of water.

[2] = Particle size analysis with Beckman Device (laser diffraction); conditions: Fraunhofer optical model
Experimental: Particle size may be determined in any suitable manner. For example, a Beckman Coulter LS 13 320 Laser Diffraction Particle Size Analyzer (the “Beckman Device”) may be used to determine particle size. As described above, particle size may be represented by various metrics, for example, through an X50 particle size, and/or X90 particle size, or similar descriptions of particle size.
For the purposes of this Example, a particle size analysis is conducted by using the Beckman Device. A sample API comprising micronized progesterone in accordance with various embodiments is provided for analysis.
Approximately 0.01 g of a sample API in accordance with various embodiments was combined with Coulter 1B and 10 mL of deionized water. Sonication was performed for 15 seconds. The Beckman Device, equipped with a ULM, performed analysis for 90 seconds. The Beckman Device was configured to use the Fraunhofer optical model. […] The Beckman Device also yielded that the mean particle size is 4.975 μm, the median particle size is 4.279 μm, the mode particle size is 6.453 μm, and the standard deviation is 3.956 μm.
A formulation sample having approximately 200 mg of micronized progesterone and 2 mg of estradiol was dispersed with oil. The Beckman Device, equipped with a MLM, performed analysis for 60 seconds. The Beckman Device was configured to use the Fraunhofer optical model.

[3] = Progesterone solubility in solvents
Source text: . Thus, MIGLYOL® may be used in embodiments comprising a suspension of progesterone, though MIGLYOL®, standing alone, is not desirable for use in embodiments having fully solubilized progesterone and/or estradiol.

Results after addition of 7% water ([1]; estradiol 6 mg/g in CAPMUL MCM): without recrystallization
Results after addition of 7% water ([1]; estradiol 6 mg/g in MIGLYOL 812:CAPMUL PG8 (75:25)): Precipitated
Results after addition of 7% water ([1]; estradiol 6 mg/g in Polyethylene Glycol 400): without recrystallization
Results after addition of 7% water ([1]; estradiol 12 mg/g in CAPMUL MCM): Clear
Results after addition of 7% water ([1]; estradiol 12 mg/g in MIGLYOL 812:CAPMUL PG8 (50:50)): Hazy
Results after addition of 7% water ([1]; estradiol 12 mg/g in Polyethylene Glycol 400): clear
Results after addition of 7% water ([1]; estradiol 12 mg/g in TRANSCUTOL:MIGLYOL 812:CAPMUL PG8 (5:47:47)): Hazy
Results after addition of 7% water ([1]; estradiol 12 mg/g in TRANSCUTOL:MIGLYOL 812:CAPMUL PG8 (5:65:28)): Hazy
SMILES: C[C@]12CC[C@@H]3c4ccc(O)cc4CC[C@H]3[C@@H]1CC[C@@H]2O [Estradiol, (17β)-estra-1,3,5(10)-triene-3,17-diol]

X25 particle size [2]: 1.590 μm
X50 particle size [2]: 4.279 μm
X75 particle size [2]: 7.442 μm
mean particle size [2]: 4.975 μm
median particle size [2]: 4.279 μm
mode particle size [2]: 6.453 μm
Progesterone Solubility ([3]; in CAPMUL MCM): 73.4 mg/g
Progesterone Solubility ([3]; in CAPMUL MCM:GELUCIRE 44/14 (6:3)): 57.4 mg/g
Progesterone Solubility ([3]; in CAPMUL MCM:GELUCIRE 44/14 (6:4)): 57.4 mg/g
Progesterone Solubility ([3]; in CAPMUL MCM:GELUCIRE 44/14 (7:3)): 70.5 mg/g
Progesterone Solubility ([3]; in CAPMUL MCM:GELUCIRE 44/14 (9:1)): 86.4 mg/g
Progesterone Solubility ([3]; in CAPMUL MCM:GELUCIRE 44/14 (9:1), listed as progesterone): approximately 86 mg/g
Progesterone Solubility ([3]; in CAPMUL MCM, listed as progesterone): ~73 mg/g
Progesterone Solubility ([3]; in CAPMUL PG8): 95 mg/g
Progesterone Solubility ([3]; in MIGLYOL 812): 27.8 mg/g
SMILES: CC(=O)[C@H]1CC[C@H]2[C@@H]3CCC4=CC(=O)CC[C@]4(C)[C@H]3CC[C@]12C [Progesterone, pregn-4-ene-3,20-dione]
